The text below walks through data of publication PMC12833730, “Discovery of a First‐in‐Class Covalent Allosteric SHP1 Inhibitor with Immunotherapeutic Activity” (Angewandte Chemie (International Ed. in English), 2025).

“Also recorded” adds a separate entry of the source.

Format in all cases: cell-based
For data set [1], the system named is LCK, PLCγ and ERK1/2 phosphorylation in Jurkat T cells. The data set can be described thus: TCR-LCK signaling immunoblot. The note with it: dose response. On the procedure: Supernatants from lysed cells were reduced, treated with iodoacetamide to cap thiol residues, and digested by trypsin for bottom‐up proteomics analysis. […] LCK is the direct substrate of SHP1 and ERK1/2, and PLCγ is the downstream effector protein of LCK‐mediated TCR signaling. […] Statistical analyses were performed with Graphpad Prism software 10.4.2 through the one‐way ANOVA test using Turkey post‐hoc comparison. ****p < 0.0001 was considered significant.
To further confirm M029 cellular target engagement, we investigated the effect of M029 on T cell function. SHP1 plays a negative role in T cells, and deletion of SHP1 in T cells lowers the activation threshold and enhances antitumor immunity.^[ [30], [31], [32], [33] ^] Mechanistically, SHP1 attenuates T cell receptor (TCR) signaling via dephosphorylation of the lymphocyte‐specific protein tyrosine kinase LCK.^[ [31], [84], [85], [86] ^] T cell activation leads to increased expression and secretion of interleukin 2 (IL‐2)^[ [87] ^] while the removal of SHP1 in T cells enhances IL‐2 production, cell proliferation, and cytolysis capacity.^[ [30], [32] ^] Accordingly, we sought to assess the impact of targeting SHP1 with M029 on TCR‐LCK signaling and T cell activation. […] M029 also dose‐dependently promoted IL‐2 production (Figure 4c). […] These findings corroborate that the observed increase in LCK phosphorylation and its downstream signaling indeed resulted from SHP1 inhibition by M029.
Immunoblotting: Cultured cells were lysed with ice-cold lysis buffer (50 mM Tris, pH 8.0, 150 mM NaCl, 10% Glycerol, 1% Triton-X-100) supplied with phosphatase inhibitor (Bimake) and protease inhibitor mixture (Roche Applied Science). Equal amounts of protein were resolved by SDS-PAGE, transferred to a nitrocellulose membrane, and subjected to immunoblotting. […]
For orientation: In western blotting, separated proteins are transferred to a membrane and probed.

A further data set deals with Raw264.7 cells. Description: CCK8 cytotoxicity. The note with it: up to 50 µM, 24 hours. On the procedure: (§1) Figure S3. Cancerous cells (MC38, EO771, and B16-F10), non-cancerous cells (HEK293), and immune cells (Jurkat and Raw264.7) were treated with M029 at different doses for 24 hours, and the cell viability was determined by the CCK8 experiments using DMSO-treated cells as a control. […] Results were analyzed using GraphPad Prism 10.4.2. The figure is plotted as average ± standard error of the mean (SEM).
(§2) Cytotoxicity: HEK293, MC38, EO771, RAW264.7 cells in DMEM media [supplemented with 10% (v/v) fetal bovine serum and penicillin (100 units/ml)/streptomycin (100 μg/ml)] and Jurkat T cells in RPMI 1640 media [supplemented with 10% (v/v) fetal bovine serum and penicillin (50 units/ml)/streptomycin (50 μg/ml)] were dispensed in clear flat-bottom 96-well plates at the density of 5,000 cells per well and culture for 16 hours under 37 °C with 5% CO2. M029 of different concentrations or DMSO was added to each well, followed by additional incubation for 24 hours. All wells were then treated with 5 µL of CCK8 reagent (Abcam, #ab228554) followed by 4 hours of incubation. OD460 of the reaction mixture was detected using a Spectra MAX340 microplate spectrophotometer (Molecular Devices) and was used to determine the percent growth inhibition of M029 on each cell line. Data were fitted using Prism GraphPad 10.1.1.

In a further data set the test system is MC38. Description: CCK8 cytotoxicity. As to conditions: up to 50 µM, 24 hours. On the procedure:
as §1, §2

For the next data set, the system named is HEK293. The data set can be described thus: CCK8 cytotoxicity. As to conditions: up to 50 µM, 24 hours. On the procedure: as §1, §2
In the next data set the test system is B16-F10. The data set can be described thus: CCK8 cytotoxicity. The note with it: up to 50 µM, 24 hours. On the procedure:
as §1, §2

Another data set deals with Jurkat T cells. Description: CCK8 cytotoxicity. As to conditions: up to 50 µM, 24 hours. On the procedure: as §1, §2
A further data set concerns EO771. Description: CCK8 cytotoxicity. The note with it: up to 50 µM, 24 hours. On the procedure: as §1, §2

Turning to `N#Cc1ccsc1NS(=O)(=O)c1ccc(NC(=O)CCl)cc1` [M029, 2-Chloro-N-(4-(N-(3-cyanothiophen-2-yl)sulfamoyl)phenyl)acetamide], in data set [1], the “TCR-mediated phosphorylation of LCK, PLCγ and ERK1/2” value is recorded as “upregulation; also recorded: dose dependently increased”. Besides, the “cytotoxicity, Raw264.7” value in the data set on Raw264.7 cells is listed as “No significant toxicity; also recorded: no significant cytotoxicity”. In addition, the “cytotoxicity, MC38” value with MC38 was “No significant toxicity; also recorded: no significant cytotoxicity”. In addition, the “cytotoxicity, HEK293” value in the data set with HEK293 is recorded as “No significant toxicity; also recorded: no significant cytotoxicity”. In the data set with B16-F10, the “cytotoxicity, B16-F10” value is “No significant toxicity; also recorded: no significant cytotoxicity”. The “cytotoxicity, Jurkat T cells” value in the data set on Jurkat T cells was “No significant toxicity; also recorded: no significant cytotoxicity”. In the data set with EO771, the “cytotoxicity, EO771” value is “No significant toxicity; also recorded: no significant cytotoxicity”.
